According to patent EP0589069A1, “Hydroquinone derivatives and antioxidants and tumor inhibitors containing them” (NIPPON HYPOX LABORATORIES INCORPORATED, priority 1992, dated 1994):

Tests used:
[1] = tested on: lipid of rat liver microsome; test: Inhibition activity against hyperoxidation of lipid of rat liver microsome (thiobarbituric acid method); format: biochemical; details: for Inhibition ratio of lipid peroxidation (%): rat liver microsome, NADPH/ADP/FeCl₃, 37°C; for antioxidant activity (result in words on Table 2): summary of Table 2
Experimental: [Inhibition activity against hyperoxidation of lipid of rat liver microsome]
A plurality of male SD rats (weighing […]) were prepared. Each rat was anesthetized with pentobarbital, and then subjected to celiotomy. A cannula was introduced into the portal vein of each rat, the abdominal large veins were sectioned, and 500 ml of cold 0.9 % NaCl was injected into the portal veins.
Livers were extracted from individual rats, and the livers were cut to pieces in 1.15 % KCl and homogenized with ice cooling. Then, 1.15 % KCl was further added to obtain a 30 % liver homogenized solution.
The above homogenized solution was centrifugally separated at 8,000 g (g: gravitation acceleration) for 10 minutes, and the resultant supernatant was recovered.
The so-prepared suspension was stored at -20°C before a test described in the following (2), and it was used within 1 week after the preparation.
As test compounds, the hydroquinone derivatives obtained in Preparation Examples 1 to 12, a known hydroquinone derivative which was a compound of the formula (I) in which R¹ was methyl (hereinafter referred to as HQ1) and BHT were respectively tested on their inhibition activities against hyperoxidation of lipid in the following manner.
First, 0.1 ml of the liver microsome suspension obtained in the above (1), 0.1 ml of NADPH (final concentration 2 mM), 0.1 ml of ADP (final concentration 10 mM) and 0.1 ml of a solution of one of the test compounds whose concentration was adjusted as shown in Table 2 with 10 % DMF were added to a tris-HCl buffer (167 mM KCl, 74 mM TRIS, pH 7.4), and the resultant mixture was warmed at 37°C for 5 minutes. Then, 0.1 ml of FeCl₃ (final concentration 0.1 mM) was added, and the mixture was warmed at 37°C for 20 minutes.
The resultant reaction mixture was cooled with ice. Then, 0.2 ml of 8.1 % SDS, 1.5 ml of an acetic acid buffer (prepared by adjusting 20 % acetic acid containing 0.27 mM HCl to pH 3.5 with 10N NaOH) and 1.5 ml of 0.8 % thiobarbituric acid were added to the cooled reaction mixture, and the resultant mixture was warmed over a boiling water bath for 20 minutes. After the warming, the reaction mixture was cooled with ice, and 4 ml of an n-BuOH/pyridine mixed solution [n-BuOH:pyridine = 15:1 (volume ratio)] was added to the cooled reaction mixture. The mixture was vigorously stirred.
The reaction mixture was centrifugally separated at 2,000 rpm for 10 minutes, and the resultant supernatant was measured for an absorbance at 532 nm to determine a thiobarbituric acid reaction amount. And, on the basis of a calibration curve of […] (MDA) amount prepared by using 1,1,3,3-tetramethoxypropane, a peroxidized lipid amount was determined as an amount of formed MDA.
In Control, the solution of the test compound in 10 % DMF was replaced with 0.1 ml of a 10 % DMF solution, and the above procedures were repeated to determine a peroxidized lipid amount. In Blank, each of 0.1 ml of NDAPH, 0.1 ml of ADP and 0.1 ml of FeCl₃ were replaced with 0.1 ml of water, the solution of the test compound in 10 % DMF was replaced with 0.1 ml of a 10 % DMF solution, and the above procedures were repeated to determine a peroxidized lipid amount.
The inhibition ratio of the lipid peroxidation reaction was calculated on the basis of the following equation. Inhibition ratio (%) =[1-(OD₁-OD₃)/(OD₂-OD₃)] x 100 [formula] OD₁: Absorbance when test compound is added. OD₂: Absorbance of Control OD₃: Absorbance of Blank

[2] = tested on: Salmonella TA 98; test: Antimutagenic activity test on mutagenesis of heterocyclic amine to Salmonellae (preincubation Ames test with S9 mix); format: cell-based; details: mutagen IQ 0.005 µg; test compound 20.0 µg
Experimental: Compounds of the present invention were tested on their antimutagenic activity to heterocyclic amines of Glu-P-1·HCl, Trp-P-1 acetate and IQ by a preincubation method-applied Ames test according to the method of Diane et al (Diane F. Birt, et al., Carcinogenesis, Vol. 7, No. 6, 959-963, 1986).
That is, S9 mix (0.5 ml), 0.1 ml of a Salmonella TA 98 medium, a compound of the present invention dissolved in DMSO and 0.1 ml of one of the above mutagens were charged into a test tube, and cultured at 37°C for 20 minutes with shaking. Then, 2 ml of soft agar was added to, and mixed with, the contents in the test tube. The resultant mixture was spread over a minimal glucose agar medium, and cultured at 37°C for 48 hours, and the number of reverse mutation colonies. Two or three plates were prepared each dosage, and the test results were compared with the test result of a negative control group to which DMSO alone was added and the test result of a positive control group to which the corresponding mutagen alone was added. […]

[3] = test compound concentration 10⁻⁶M
[4] = test compound concentration 10⁻⁵M

Row | Substance | Inhibition ratio of lipid peroxidation (%) [1, 3] | Mutagenesis inhibition ratio [2] | antioxidant activity (result in words on Table 2) [1] | Inhibition ratio of lipid peroxidation (%) [1, 4]
1 | 1-butyl-2,3,5-trimethylhydroquinone [Preparation Example 3] | 75.9% | 85 | – | –
2 | 1-octylhydroquinone [Preparation Example 1] | 9.8% | – | excellent antioxidant activity over the known hydroquinone derivative HQ1 | 99.7%
3 | 4-hexyl-2,3,5-trimethylhydroquinone [Preparation Example 8] | 40% | – | – | 98.3%
4 | 1-decylhydroquinone [Preparation Example 2] | 1.8% | – | excellent antioxidant activity over the known hydroquinone derivative HQ1 | 79.5%
